Earlier results, collected in patent publication US20100055044A1, “Ruthenium compounds and compositions” (priority 2008, published 2010).
Where two headings read alike, the source gives them in different places.

Tested on: Alveolar adenocarcinoma, breast adenocarcinoma, uterine carcinosarcoma, and endometrial carcinoma cells
Conditions: 8 days

O=[O+][O-] [ozone]
cell growth inhibition (0.3 ppm ozone in air): 40%
cell growth inhibition (0.5 ppm ozone in air): 60%
cell growth inhibition (0.8 ppm ozone in air, cancerous cells): 90%
